Test systems include A498 renal; ACHN renal; HCC-2998 colon; HCT-116 colon; K-562 leukemia; M14 melanoma; MDA-MB-231 breast; RPMI-8226 leukemia; SK-MEL-2 melanoma; UO-31 renal.
What all share (assay): NCI-60 cell line screen, 48 h

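Step 1: Grow cells in 96-well plates. Step 2: Expose to compound for 48 hours at 5 concentrations. Step 3: Interpolate endpoints linearly; if unreached, use highest concentration. The concentration for 50% growth inhibition is given as GI50. TGI marks complete inhibition of growth.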

`Nc1nccc(-c2c(-c3ccc(F)cc3)ncn2C2CCC(O)CC2)n1` (stereo not given): the GI50 in the experiment with A498 renal is 3.29 µM; with ACHN renal, 2.83 µM; in the experiment on HCC-2998 colon, 17.3 µM; in the experiment with HCT-116 colon, 9.75 µM; in the experiment with K-562 leukemia, 11.9 µM; with M14 melanoma, 14 µM. Further, the GI50 is 14.5 µM in the experiment with MDA-MB-231 breast, 11.7 µM in the experiment on RPMI-8226 leukemia, 24.7 µM in the experiment on SK-MEL-2 melanoma and 1.79 µM in the experiment on UO-31 renal. Also, the TGI with A498 renal, in the experiment on ACHN renal, in the experiment with HCC-2998 colon, in the experiment with HCT-116 colon, with K-562 leukemia and in the experiment on M14 melanoma was greater than 25 µM each time. Further, the TGI is greater than 25 µM with MDA-MB-231 breast, greater than 25 µM with RPMI-8226 leukemia, greater than 25 µM in the experiment with SK-MEL-2 melanoma and greater than 23.2 µM with UO-31 renal.
`Cc1cc(Cl)cc2c1NC(=O)C2(O)CC(=O)c1ccco1` (stereo not given): the TGI with A498 renal is greater than 100 µM; in the experiment on ACHN renal, greater than 100 µM; in the experiment on HCC-2998 colon, greater than 100 µM; in the experiment with HCT-116 colon it was greater than 100 µM; with K-562 leukemia, 54.6 µM; in the experiment on M14 melanoma it was greater than 100 µM. For the same compound, the TGI in the experiment on MDA-MB-231 breast is greater than 100 µM; in the experiment with RPMI-8226 leukemia, greater than 83.7 µM; in the experiment with SK-MEL-2 melanoma, greater than 100 µM; with UO-31 renal, greater than 100 µM.
On to `CCCCCCCC[C@@H](O)CC(=O)N[C@@H](CC(N)=O)C(=O)N[C@@H](CCC(N)=O)C(=O)N[C@@H](CC(=O)c1cc(C)cc(O)c1C(=O)c1c(O)cccc1O)CC(C)C`, for which the GI50 in the experiment with A498 renal was 2.29 µM; in the experiment on ACHN renal, 3.09 µM; with HCC-2998 colon it was 0.403 µM; in the experiment on HCT-116 colon, 0.303 µM; with K-562 leukemia it was 0.408 µM; with M14 melanoma it was 0.735 µM. Moreover, the GI50 in the experiment with MDA-MB-231 breast is 0.678 µM; with RPMI-8226 leukemia, 0.0926 µM; in the experiment on SK-MEL-2 melanoma, 2.76 µM; in the experiment on UO-31 renal, 3.9 µM. The TGI with A498 renal is 7.44 µM; with ACHN renal, greater than 100 µM; in the experiment on HCC-2998 colon it was 1.43 µM; with HCT-116 colon, 1.78 µM; in the experiment on K-562 leukemia it was greater than 100 µM; in the experiment on M14 melanoma, 18.4 µM. Also, the TGI in the experiment with MDA-MB-231 breast amounted to 68.3 µM; in the experiment with RPMI-8226 leukemia, 0.883 µM; with SK-MEL-2 melanoma, 8.32 µM; with UO-31 renal, 24.7 µM.
Turning to `CCCn1c(=S)sc2c1nc(C)n1c(Nc3ccccc3)nnc21`, the GI50 in the experiment on A498 renal was 2.52 µM; in the experiment with ACHN renal, 5.05 µM; with HCC-2998 colon, 3.27 µM; in the experiment on HCT-116 colon it was 4.43 µM; in the experiment on K-562 leukemia it was 6.15 µM; in the experiment with M14 melanoma it was 4.72 µM. Moreover, the GI50 in the experiment with MDA-MB-231 breast is 9.71 µM; in the experiment with RPMI-8226 leukemia, 4.22 µM; in the experiment on SK-MEL-2 melanoma it was 4.64 µM; in the experiment with UO-31 renal, 5.05 µM. For the same compound, the TGI was 14.1 µM in the experiment with A498 renal; greater than 100 µM in the experiment on ACHN renal; 12.2 µM in the experiment on HCC-2998 colon; 17.7 µM in the experiment with HCT-116 colon; 37.7 µM with K-562 leukemia; 44 µM in the experiment on M14 melanoma. The TGI in the experiment with MDA-MB-231 breast is 33 µM; with RPMI-8226 leukemia it was 39.3 µM; with SK-MEL-2 melanoma, 53.1 µM; in the experiment on UO-31 renal it was greater than 100 µM.
As to `Cc1cc2c(cc1Cl)SC1=NN(C)S(=O)N1S2(=O)=O` (stereo not given), the GI50 is 99.5 µM with A498 renal; greater than 100 µM in the experiment on ACHN renal; greater than 100 µM with HCC-2998 colon; greater than 100 µM in the experiment with HCT-116 colon; greater than 100 µM with K-562 leukemia; greater than 100 µM with M14 melanoma. In addition, the GI50 in the experiment with MDA-MB-231 breast was greater than 100 µM; in the experiment with RPMI-8226 leukemia, greater than 100 µM; in the experiment on SK-MEL-2 melanoma, greater than 100 µM; with UO-31 renal, 65.9 µM. Besides, the TGI in the experiment on A498 renal, in the experiment on ACHN renal, in the experiment on HCC-2998 colon, with HCT-116 colon, with K-562 leukemia and in the experiment on M14 melanoma was greater than 100 µM throughout. Moreover, the TGI in the experiment with MDA-MB-231 breast, in the experiment on RPMI-8226 leukemia, in the experiment on SK-MEL-2 melanoma and in the experiment on UO-31 renal was greater than 100 µM each time.
`CCOCC(=O)N[C@H]1CCc2cc(OC)c(OC)c(OC)c2-c2ccc(OC)c(=O)cc21`: the TGI was 8.87 µM in the experiment with A498 renal; greater than 100 µM in the experiment with ACHN renal; 5.27 µM in the experiment on HCC-2998 colon; 10.7 µM with HCT-116 colon; greater than 100 µM in the experiment with K-562 leukemia; 20.2 µM in the experiment on M14 melanoma. The TGI with MDA-MB-231 breast is greater than 100 µM; with RPMI-8226 leukemia, greater than 100 µM; with SK-MEL-2 melanoma it was greater than 15.8 µM; in the experiment with UO-31 renal, greater than 100 µM.
For the compound `CCCCCCCCn1ccc2cc(NC(=O)Cn3cc(CN4CCCC4)nn3)ccc21`, the GI50 in the experiment with A498 renal was 1.7 µM; in the experiment on ACHN renal, 1.69 µM; in the experiment with HCC-2998 colon, 1.73 µM; with HCT-116 colon it was 1.7 µM; with K-562 leukemia, 1.91 µM; in the experiment with M14 melanoma it was 1.79 µM. Further, the GI50 in the experiment with MDA-MB-231 breast is 1.84 µM; with RPMI-8226 leukemia, 2.18 µM; with SK-MEL-2 melanoma it was 1.86 µM; in the experiment with UO-31 renal it was 1.54 µM. Further, the TGI in the experiment with A498 renal came to 3.35 µM; in the experiment with ACHN renal, 3.07 µM; in the experiment with HCC-2998 colon, 3.17 µM; in the experiment on HCT-116 colon it was 3.32 µM; in the experiment on K-562 leukemia it was 3.9 µM; with M14 melanoma, 3.35 µM. For the same compound, the TGI with MDA-MB-231 breast was 3.49 µM; in the experiment on RPMI-8226 leukemia, 5.17 µM; in the experiment on SK-MEL-2 melanoma it was 3.66 µM; in the experiment with UO-31 renal, 2.88 µM.
`C[N+]1=C(/C=C/c2ccc(O)c3ncccc23)C(C)(C)c2ccccc21`: the GI50 is 1.97 µM with A498 renal; 1.98 µM with ACHN renal; 2.44 µM in the experiment on HCC-2998 colon; 2.86 µM in the experiment with HCT-116 colon; 2.32 µM in the experiment on K-562 leukemia; 2.53 µM in the experiment on M14 melanoma. The GI50 in the experiment with MDA-MB-231 breast was 2.75 µM; in the experiment with RPMI-8226 leukemia, 2.48 µM; with SK-MEL-2 melanoma, 3.88 µM; in the experiment with UO-31 renal, 0.58 µM. Also, the TGI in the experiment on A498 renal was 11 µM; in the experiment with ACHN renal it was 7.03 µM; in the experiment with HCC-2998 colon, 6.73 µM; in the experiment on HCT-116 colon, 10.5 µM; with K-562 leukemia, greater than 100 µM; in the experiment with M14 melanoma it was 7.7 µM. Besides, the TGI in the experiment on MDA-MB-231 breast was 11 µM; with RPMI-8226 leukemia, 10.3 µM; in the experiment on SK-MEL-2 melanoma it was 24 µM; in the experiment with UO-31 renal, 5.73 µM.

The values above are taken from PubChem BioAssay (NCI).
